These results are taken from paper PMC9497102, “Thiosemicarbazone Derivatives Developed to Overcome COTI-2 Resistance” (Cancers, 2022).

Data set [1] is described as follows: Parallel artificial membrane permeability assay (PAMPA). The class given is in vitro ADME. Conditions: pH 7.4, 25 °C, read-out: Peff. On the procedure: The thermodynamic solubility of COTI-NMeCy, COTI-Nme2, COTI-NH2, and COTI-2 was measured for the saturated solutions in water at pH 7.4 (20 mM HEPES buffer) at 25.0 ± 0.1 °C. The concentrations of the compounds were determined by UV-vis spectrophotometry using stock solutions of the compounds with known concentrations dissolved in pure DMSO, and 50% and 1% (v/v) DMSO/buffered aqueous solution for the calibration. The parallel artificial membrane permeability assay (PAMPA) was applied for the ligands with a Corning Gentest pre-coated PAMPA Plate System. Peff values were calculated according to the equation reported by Yu et al..
A general note: In PAMPA a lipid-coated filter parts donor from acceptor wells.

A further data set relates to SW480/Coti cells. The data set can be described thus: MTT viability assay, 72 h. In kind it is cell-based, human. The settings on record: for IC50: Homo sapiens, SW480, 72 h, MTT. On the procedure: (§1) In vitro tests were performed with human colorectal cancer SW480 cells (purchased from the American Type Culture Collection, Manassas, VA, USA), SW480/Tria, and the SW480/Coti cells, which are previously established sublines that are resistant to Triapine and COTI-2 [16], respectively. Additionally, small-cell lung carcinoma GLC-4 and its subline GLC-4/adr, which is a doxorubicin-resistant subline overexpressing ABCC1 (purchased from Dr. […], Groningen, The Netherlands), were used. All cells were maintained in a humidified 5% CO2 incubator at 37 °C and grown in minimal essential medium or RPMI-1640, respectively, supplemented with 10% fetal bovine serum (FBS). In order to maintain the resistant phenotype of GLC-4/adr cells, they were selected with doxorubicin (1152 nM) once a month. All cell lines were tested for mycoplasma contamination. For the cytotoxicity, cell viability, and proliferation studies, the 3-(4,5-dimethylthiazol-2-yl)-2,5-diphenyltetrazolium bromide (MTT) assay was utilized. Cells were seeded in 96-well plates at a density of 2 × 10^4 cells/well, with the exception of SW480/Tria, which was used at a density of 3 × 10^4 cells/well. After 24 h of recovery, cells were treated with the indicated concentration of drugs. For the drug combination experiments, verapamil and cyclosporine A (CSA) were used as ABCC1 modulators, and tetrathiomolybdate (TTM) was used as a copper chelator. The TSCs were dissolved in DMSO followed by subsequent dilutions in the medium in order to maintain a final DMSO concentration of <1%. After 72 h, the treatment solution was removed and replaced with 100 μL of MTT solution (EZ4U, Biomedica, Vienna, Austria), which was diluted 1:10 in the growth medium. A TECAN Infinite 200 Pro plate reader was used to measure the absorbance of the solution after 2-3 h incubation at 5% CO2 in an incubator at 37 °C. The anticancer activity was determined with GraphPad Prism software and indicated as IC50 values (half maximum inhibitory concentration).
(In general: Tetrazolium dyes change colour on reduction, which living cells bring about.)

The test system of a further data set is GLC-4 cells. Kind of data set: MTT viability assay, 72 h. The class given is cell-based. Conditions: Homo sapiens, GLC4. How it is done:
as §1

The test system of data set [2] is GLC-4/adr cells (ABCC1-overexpressing). Kind of data set: MTT viability assay, 72 h. In kind it is cell-based. On the procedure: as §1
Data set [3] deals with SW480 and SW480/Coti cells. Kind of data set: HPLC-MS cell uptake measurements. In kind it is cell-based, human. The settings on record: 10 µM, 3 h; for uptake lower in resistant SW480/Coti cells compared with parental SW480 cells: LC-MS (method not validated). On the procedure: Cells (1 × 10^6) were seeded in 25 cm^2 culture flasks and left to recover for 24 h at 37 °C and 5% CO2. The compounds were dissolved in DMSO (10 mM) and further diluted in the growth medium. The cells were treated in triplicate by replacing the growth medium with 5 mL of drug-containing medium (10 µM). After 3 h of incubation the cells were washed once with ice-cold PBS, and then collected by scraping into ice-cold PBS. The cell suspension was centrifuged for 5 min at 300× g and the supernatant was removed. Then, the cell pellets were lysed with three freeze/thaw cycles in liquid nitrogen/37 °C waterbath and re-suspended in 100 µL of water and 300 µL of cold acetonitrile (1:3 mixture). After 10 min of incubation on ice, the samples were centrifuged (15,080× g, 4 °C, and 10 min) and the supernatants were stored at −80 °C for HPLC-MS analysis. For the calibration curve, known concentrations of drugs were spiked into untreated cell extracts before adding acetonitrile. To normalize to the cell number, additional flasks were prepared (treated and untreated) and cells were collected by trypsinization and counted with counting chambers.
LC-MS analyses of the cell and media extracts were performed on a Vanquish Horizon UHPLC system (Thermo Fisher Scientific, Waltham, MA, USA) coupled to the ESI source of a timsTOF fleX mass spectrometer (Bruker Daltonics, Billerica, MA, USA). […] High-resolution ESI-MS spectra were recorded using the positive ion mode in the range of m/z 150–510 at a spectra rate of 2 Hz. […] For quantification, extracted ion chromatograms of m/z 249.1168 ± 0.0020 for COTI-NMe2 and of m/z 367.1699 ± 0.0020 for COTI-2 were calculated and the peak areas were determined using Bruker Compass Data Analysis 5.3.
In general, it must be mentioned that the LC-MS method for quantification of COTI-2 and COTI-NMe2 was not validated and that the deviation of the peak areas both within a batch and between batches was higher than expected. […]

The test system of a further data set is SW480 cells. The data set can be described thus: Mitotic nuclei by DAPI staining. In kind it is cell-based, human. Conditions: 24 h. How it is done: In order to detect mitotic nuclei, fixed cells were stained with DAPI. SW480 and SW480/Coti cells were seeded at a density of 2 × 10^5 cells per well in 6-well plates and left to recover for 24 h. This was followed by drug treatment at the indicated concentrations for 24 h. Then, cells were collected and spun on slides by centrifugation with a Thermo Scientific Cytospin 4 (400 rpm, 5 min at 4 °C). The slides were dried, and the cells were fixed with a methanol/acetone (1:1) mixture at −20 °C and stained with a solution containing DAPI (1 µg/mL). A final washing step with phosphate-buffered saline (PBS) was performed, followed by covering the slides with vectashield (H-100, Vector Laboratories, Inc., Newark, CA, USA) and coverslips. Mitotic nuclei were counted with Image J in three different areas per slide from three independent experiments.

The test system of the next data set is SW480/Tria cells. Further details: method as in PMID 33190481. Conditions: 72 h, MTT; cited from earlier work.
Details of data set [4]: method as in PMID 33190481. The settings on record: after formation of mixed-ligand GSH adduct; cited from earlier work.

For `CN(C)C(=S)NN=C1CCCc2cccnc21` (mixture of isomers) [COTI-NMe2, 2-(6,7-Dihydroquinolin-8(5H)-ylidene)-N^4,N^4-dimethylhydrazine-1-carbothioamide], the Papp in data set [1] was 16 ± 0.1 ×10⁻⁶ cm/s. The IC50 was 50 ± 30 nM in the data set with SW480/Coti cells, 30 ± 30 nM with GLC-4 cells and 60 ± 30 nM in data set [2]. Moreover, the “Relative Resistance SW480/Coti” value in the data set with SW480/Coti cells (IC50 of resistant subline divided by IC50 of parental SW480) was 1.3 ^n.s. In data set [3], the “uptake lower in resistant SW480/Coti cells compared with parental SW480 cells” value is recorded as “no difference”. For the same molecule, the “lower intracellular drug levels compared with COTI-2” value in data set [3] (both SW480 and SW480/Coti) is given as 10–20 fold. In addition, the “effect on mitotic cell fraction” value in the data set on SW480 cells is reported as “(complete) loss of the mitotic cell fraction”.

Take `S=C(N/N=C1\CCCc2cccnc21)N1CCN(c2ccccn2)CC1` [COTI-2, 4-(pyridine-2-yl)-N-([(8E)-5,6,7,8-tetrahydroquinolin-8-ylidene]amino)piperazine-1-carbothioamide]: in data set [3], the “uptake lower in resistant SW480/Coti cells compared with parental SW480 cells” value is ~ 40%. In addition, in the data set on SW480 cells, the “effect on mitotic cell fraction” value is recorded as “(complete) loss of the mitotic cell fraction”. In addition, the IC50 with SW480/Tria cells is 410 ± 160 nM. Besides, the “redox reaction of the copper(II) complex with GSH” value in data set [4] was “spectra were almost unchanged within 6 h”.

On to `CN(C(=S)N/N=C1\CCCc2cccnc21)C1CCCCC1` [COTI-NMeCy, N-Cyclohexyl-2-(6,7-dihydroquinolin-8(5H)-ylidene)-N^4-methylhydrazine-1-carbothioamide], for which the results for the IC50 (with SW480/Coti cells; in the data set on GLC-4 cells; in data set [2]) were 3980 ± 400 nM, 170 ± 100 nM and 540 ± 150 nM, respectively.

A word on the IC50: it is the midpoint of a concentration-inhibition curve.
